Among the data in PubChem BioAssay (NCI) are TGI and GI50 values, retold here.

Molecules are shown by their SMILES.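 Following 48 hours of exposure in 96-well plates, responses at five concentrations were used to interpolate endpoints linearly. GI50 is the concentration that inhibits growth by half. At the TGI there is no net growth.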

Some test systems named below: BT-549 breast; DU-145 prostate; HCT-15 colon; HL-60(TB) leukemia; HOP-62 NSCLC; HT29 colon; NCI/ADR-RES ovarian; OVCAR-3 ovarian; T-47D breast; U251 CNS.
Test in all cases: growth of human tumour cells (NCI), 48 h

Turning to `CC1(C)S[C@@H]2[C@H](NC(=O)C3(N)CCCCC3)C(=O)N2[C@H]1C(=O)O`, the TGI with BT-549 breast, in the test on DU-145 prostate, in the test with HCT-15 colon, with HL-60(TB) leukemia, in the test with HOP-62 NSCLC and in the test on HT29 colon was over 100 µM each time. The TGI in the test on NCI/ADR-RES ovarian, in the test with OVCAR-3 ovarian, with T-47D breast and with U251 CNS was over 100 µM each time.

Turning to `CC[As](CC)SC[C@H](C)C(=O)N1CCC[C@H]1C(=O)O`, the GI50 is 0.0749 µM in the test on BT-549 breast; 29.7 nM with DU-145 prostate; 27 nM with HCT-15 colon; 23 nM in the test on HL-60(TB) leukemia; 0.417 µM in the test on HOP-62 NSCLC; 339 nM in the test with HT29 colon. The GI50 with NCI/ADR-RES ovarian is 0.0152 µM; in the test with OVCAR-3 ovarian, 0.0135 µM; in the test with T-47D breast it was 0.414 µM; with U251 CNS, 197 nM. Moreover, the TGI in the test with BT-549 breast is 0.515 µM; in the test on DU-145 prostate it was 0.104 µM; in the test on HCT-15 colon, 0.194 µM; in the test with HL-60(TB) leukemia, 0.0757 µM; in the test with HOP-62 NSCLC, 1.37 µM; with HT29 colon it was over 100 µM. The TGI in the test with NCI/ADR-RES ovarian came to 0.13 µM; with OVCAR-3 ovarian, 0.0347 µM; with T-47D breast, 1.96 µM; in the test on U251 CNS it was 0.576 µM.

Take `O=C(O)COc1ccc2c(=O)c3sc4c(=O)c5ccccc5c(=O)c4c3c(=O)c2c1`: the GI50 in the test on BT-549 breast was 6.99 µM; in the test with DU-145 prostate it was 2150 nM; in the test on HCT-15 colon, 4410 nM; in the test with HL-60(TB) leukemia, 24100 nM; in the test on HOP-62 NSCLC, 8.03 µM; with HT29 colon, 22000 nM. The GI50 is 29.9 µM in the test with NCI/ADR-RES ovarian, 13.5 µM in the test on OVCAR-3 ovarian, 21.4 µM in the test with T-47D breast and 13700 nM in the test on U251 CNS. For the same compound, the TGI is 21.8 µM in the test on BT-549 breast; 5.34 µM with DU-145 prostate; 18.2 µM in the test with HCT-15 colon; 61.3 µM in the test on HL-60(TB) leukemia; 22.4 µM in the test with HOP-62 NSCLC; over 100 µM in the test on HT29 colon. Further, the TGI in the test on NCI/ADR-RES ovarian was over 100 µM; with OVCAR-3 ovarian, 33.9 µM; in the test with T-47D breast, 50.9 µM; with U251 CNS, 32.8 µM.

`COc1cc(C(=O)N2CCN(C=O)C2=S)cc(OC)c1OC`: the GI50 in the test on BT-549 breast was 25 µM; with DU-145 prostate, 19600 nM; in the test on HCT-15 colon, 25600 nM; in the test with HL-60(TB) leukemia, 23400 nM; in the test on HOP-62 NSCLC it was 20 µM; in the test with HT29 colon it was 26700 nM. Moreover, the GI50 was 36.1 µM with NCI/ADR-RES ovarian, 16.9 µM in the test with OVCAR-3 ovarian, 20.7 µM in the test on T-47D breast and 16400 nM in the test on U251 CNS. Also, the TGI with BT-549 breast is 62.4 µM; with DU-145 prostate, 56.6 µM; with HCT-15 colon, 73.6 µM; in the test on HL-60(TB) leukemia, 44.3 µM; in the test on HOP-62 NSCLC, 61.1 µM; with HT29 colon, 66.4 µM. Moreover, the TGI in the test with NCI/ADR-RES ovarian was over 100 µM; with OVCAR-3 ovarian it was 33.6 µM; in the test with T-47D breast, 90.6 µM; with U251 CNS, 37.8 µM.

For the compound `CCN1CCN(C(=O)[C@@]2(C)CC[C@]3(C)CC[C@]4(C)C(=CC(=O)[C@@H]5[C@@]6(C)CC[C@H](OC7C[C@@H](O)[C@@H](O)C(C)O7)C(C)(C)[C@@H]6CC[C@]54C)[C@@H]3C2)CC1` (stereo not given in full), the GI50 was 5.84 µM with BT-549 breast; 8710 nM with DU-145 prostate; 2210 nM with HCT-15 colon; 939 nM in the test with HL-60(TB) leukemia; 2.39 µM in the test with HOP-62 NSCLC; 1080 nM in the test on HT29 colon. For the same compound, the GI50 is 2.53 µM in the test with NCI/ADR-RES ovarian, 8.75 µM in the test with OVCAR-3 ovarian, 9.57 µM in the test on T-47D breast and 1520 nM with U251 CNS. In addition, the TGI in the test with BT-549 breast is 13 µM; in the test with DU-145 prostate, 16.3 µM; in the test with HCT-15 colon, 8.67 µM; in the test with HL-60(TB) leukemia, 1.91 µM; in the test on HOP-62 NSCLC, 10.8 µM; in the test on HT29 colon, 2.59 µM. Further, the TGI in the test on NCI/ADR-RES ovarian was determined as 12.9 µM; in the test on OVCAR-3 ovarian it was 16.7 µM; in the test on T-47D breast, 23.1 µM; in the test on U251 CNS, 5.68 µM.

Regarding `Nc1nn2cc(F)cnc2c1C(=O)Nc1cncc(F)c1N1CCC(C(=O)N2CCN(C3COC3)CC2)CC1`, the GI50 was 0.246 µM in the test on BT-549 breast; 469 nM with DU-145 prostate; 165 nM in the test with HCT-15 colon; 129 nM in the test on HL-60(TB) leukemia; 0.676 µM in the test with HOP-62 NSCLC; 452 nM with HT29 colon. The GI50 with NCI/ADR-RES ovarian is 0.749 µM; with OVCAR-3 ovarian, 0.854 µM; in the test on T-47D breast, 2.04 µM; with U251 CNS, 656 nM. Besides, the TGI is 1.55 µM with BT-549 breast; over 100 µM in the test on DU-145 prostate; 4.13 µM with HCT-15 colon; 0.465 µM with HL-60(TB) leukemia; 3.98 µM in the test with HOP-62 NSCLC; over 100 µM in the test on HT29 colon. Moreover, the TGI is over 48.5 µM in the test on NCI/ADR-RES ovarian, 26 µM in the test on OVCAR-3 ovarian, over 100 µM in the test on T-47D breast and over 100 µM in the test on U251 CNS.

As to `COc1ccc(/C=C\[N+](=O)[O-])cc1OC`, the GI50 is 2.26 µM with BT-549 breast; 3100 nM in the test on DU-145 prostate; 2190 nM in the test on HCT-15 colon; 2940 nM with HL-60(TB) leukemia; 12 µM in the test on HOP-62 NSCLC; 1870 nM in the test with HT29 colon. Also, the GI50 with NCI/ADR-RES ovarian is 7.08 µM; with OVCAR-3 ovarian it was 3 µM; with T-47D breast, 7.6 µM; with U251 CNS it was 1500 nM. For the same compound, the TGI in the test with BT-549 breast was 5.21 µM; in the test with DU-145 prostate, 11.9 µM; in the test with HCT-15 colon it was 6.45 µM; with HL-60(TB) leukemia it was 7.79 µM; with HOP-62 NSCLC, 29.2 µM; in the test on HT29 colon it was 5.87 µM. For the same compound, the TGI in the test with NCI/ADR-RES ovarian worked out at 36.8 µM; with OVCAR-3 ovarian, 8.73 µM; in the test on T-47D breast it was 38.2 µM; in the test on U251 CNS, 4.72 µM.

In the case of `O=C(O)c1nnsc1-c1ccc(-c2snnc2C(=O)O)cc1`, the TGI with BT-549 breast, in the test with DU-145 prostate, in the test with HCT-15 colon, in the test with HL-60(TB) leukemia, in the test on HOP-62 NSCLC and in the test on HT29 colon was over 100 µM throughout. The TGI in the test with NCI/ADR-RES ovarian, with OVCAR-3 ovarian, in the test on T-47D breast and in the test with U251 CNS was over 100 µM in each case.
